Reference: PMC10120462, “Styrylquinazoline derivatives as ABL inhibitors selective for different DFG orientations” (Journal of Enzyme Inhibition and Medicinal Chemistry, 2023)

Experiments:
Lyn B = target: T1, Lyn B (Homo sapiens, UniProt P07948); assay: Tyrosine kinase assay (Kinase Selectivity System TK-2, ADP-Glo); assay type: biochemical; settings: 1 h incubation, mean ± SD of four experiments
T1 construct: purchased Promega

K562 cells = assay: Cell cycle assay (Muse Cell-Cycle Kit, flow cytometry); assay type: cell-based, human; settings: 16 h, concentration not given; control 28.68%
Protocol: The interesting inhibitory potential of ABL kinase and the high antiproliferative activity of several styrylquinazoline derivatives prompted us to further investigate their mechanism of action.
K562 cells were seeded in 3 cm Petri dishes (Nunc) at a density of 150,000 cells per well and incubated under standard conditions at 37 °C for 24 h. […] After 16 h of treatment, assays were performed using a Muse Cell-Cycle Kit (Millipore) according to the supplier’s instructions. Briefly, leukaemia cells were collected, washed in cold PBS, and centrifuged. Cells were then fixed in ice-cold 70% ethanol and stored at −20 °C overnight. The next day, leukaemia cells were washed with cold PBS, centrifuged and resuspended in Muse™ Cell Cycle Reagent. Samples were incubated for 30 min at room temperature in the dark. After staining, the levels of cellular subpopulations in each cell cycle phase were determined using a Muse Cell Analyser (Millipore). Experiments were performed at least four times.

Src = target: T2, Src (Homo sapiens, UniProt P12931); assay: Tyrosine kinase assay (Kinase Selectivity System TK-2, ADP-Glo); assay type: biochemical; settings: 1 h incubation, mean ± SD of four experiments
T2 construct: purchased Promega

BRK = target: T3, BRK (Homo sapiens, UniProt Q13882); assay: as above; assay type: biochemical; settings: 1 h incubation, mean ± SD of four experiments
T3 construct: purchased Promega

Fyn A = target: T4, Fyn A (Homo sapiens, UniProt P06241); assay: as above; assay type: biochemical; settings: 1 h incubation, mean ± SD of four experiments
T4 construct: purchased Promega
Source text: All newly synthesised derivatives were screened for their inhibitory potential towards eight non-receptor tyrosine kinases, such as ABL, BTK, BRK and Src family kinases, such as CSK, Lyn, Lck, Fyn and Src. […] To facilitate the analysis of the structure and enzymatic activity, all tested compounds were divided into four subgroups based on the main structural scaffolds (the general structure of each group is shown in the second column of Table 1). Series A, B, and C were subdivided according to the S^4-aryl substituent, while D represents the different styryl groups at the C^2-quinazoline position.
Herein, we used a kinase assay that contained fully expressed kinases with their regulatory domains, which are responsible for autoinhibition. The proteins are present in their unphosphorylated form and the procedure required supplementation with ATP. Importantly, autophosphorylation of ABL is dependent on […] concentration of the protein. Thus, our experimental conditions reflect the cellular process to be simulated. The luminescence signal detected after one hour of incubation with a peptide substrate was a measure of inhibition. Under these conditions, the question of whether the inhibitors tested bind to the ortho or allosteric site of the protein could be answered. […] To test this hypothesis, further molecular docking experiments were performed to more precisely determine the binding of the tested compounds to the ABL kinase.
To determine the inhibition of non-receptor tyrosine kinases, assays were performed using the kinase selectivity system TK-2 and the ADP-Glo Kinase Assay (both from Promega). The protocol was previously developed by our group and described in reports[12]^,[36]. Experiments were performed at least four times. Data are expressed as percentage of tyrosine kinase inhibitory activity after treatment with the derivatives tested.

CSK = target: T5, CSK (Homo sapiens, UniProt P41240); assay: as above; assay type: biochemical; settings: 1 h incubation, mean ± SD of four experiments
T5 construct: purchased Promega

Lck = target: T6, Lck (Homo sapiens, UniProt P06239); assay: as above; assay type: biochemical; settings: 1 h incubation, mean ± SD of four experiments
T6 construct: purchased Promega

PANC-1 = assay: Cytotoxicity studies (MTS), antiproliferative activity; assay type: cell-based, human; settings: Homo sapiens, PANC-1; 72 h, MTS
Source text: (§1) In contrast, the other cell lines studied represent common cancers found in the human population. Nevertheless, these cell lines are characterised by a different landscape of kinase expression, as reported in[36]. In chronic leukaemia cells, an aberration of the Philadelphia chromosome is common in which a fragment of chromosome 9 is displaced to chromosome 22, leading to the formation of the oncogenic protein BCR-ABL. The altered structure of the protein leads to abnormal activity that promotes excessive growth and differentiation of cells even in the absence of growth factors, as well as inhibition of apoptosis and formation of metastases. Moreover, the status of the TP53 gene in leukaemia is not insignificant. Mutations of the TP53 gene occur in more than 50% of all cancers, leading to increased metastasis and an overall poor prognosis[38]^,[39]. The p53 protein encoded by this gene plays a pivotal role in controlling cell division or cell fate when damage is detected. […] Therefore, interaction between the signalling network of the BCR-ABL pathway and p53 often results in an impairment of p53 function and survival[43]^,[44]. […] Selectivity studies were performed on normal human fibroblast – NHDF cell line.
(§2) M. Rusin from the Maria Sklodowska-Curie Memorial Cancer Centre and Institute of Oncology in Gliwice, Poland. […] G. Kramer-Marek from the Institute of Cancer Research in London, United Kingdom. The human suspension chronic myeloids leukaemia cell line K562 and the pancreatic ductal adenocarcinoma cell line PANC-1 were purchased from Merck. The normal human dermal fibroblasts cell line NHDF were obtained from PromoCell. All adherent cancer cell lines were cultured in Dulbecco’s Modified Eagle’s medium (DMEM) supplemented with 10% heat-inactivated foetal bovine serum – FBS (all from Merck). […] Each complete medium contained a mixture of two antibiotics - penicillin and streptomycin (1% v/v; Gibco). Cell lines were cultured at 37 °C with 5% CO2 humidified atmosphere.
(§3) The assay was carried out after 72 h of incubation with different concentrations of the tested compounds. Then DMEM without phenol red was added to each well with CellTiter 96®AQueous One Solution-MTS (Promega) solution and incubated for 1 h or 3 h (PANC-1) at 37 °C. The optical densities of the samples were measured at 490 nm using a multi-plate reader (Synergy 4, BioTek). […] Each compound was tested in triplicate in a single experiment and each experiment was performed three or four times.

A549 = assay: as above; assay type: cell-based, human; settings: for IC50: Homo sapiens, A549, 72 h, MTS
Source text: as §1, §2, §3

HCT 116 p53−/− = assay: as above; assay type: cell-based, human; settings: Homo sapiens, HCT-116; 72 h, MTS
Source text: as §1, §2, §3

HCT 116 p53+/+ = assay: as above; assay type: cell-based, human; settings: for IC50: Homo sapiens, HCT-116, 72 h, MTS
Source text: as §1, §2, §3

K562 = assay: as above; assay type: cell-based, human; settings: for IC50: Homo sapiens, K562, 72 h, MTS
Source text: as §1, §2, §3

U-251 = assay: as above; assay type: cell-based, human; settings: for IC50: Homo sapiens, U-251, 72 h, MTS
Source text: as §1, §2, §3

NHDF = assay: Cytotoxicity studies (MTS), normal fibroblasts; assay type: cell-based; settings: 72 h, normal human fibroblasts, read-out: Antiproliferative activity IC50 NHDF
Source text: as §1, §2, §3

BTK = target: T7, BTK (Homo sapiens, UniProt Q06187); assay: Tyrosine kinase assay (Kinase Selectivity System TK-2, ADP-Glo); assay type: biochemical; settings: 1 h incubation, mean ± SD of four experiments
T7 construct: purchased Promega

ABL = target: T8, ABL (Homo sapiens, UniProt P00519); assay: as above; assay type: biochemical; settings: 1 h incubation, mean ± SD of four experiments; for Inhibition of tyrosine kinase activity [%] ABL: 0.5 μM
T8 construct: purchased Promega

MCF-7 = assay: Cytotoxicity studies (MTS), antiproliferative activity; assay type: cell-based, human; settings: for IC50: Homo sapiens, MCF7, 72 h, MTS
Source text: as §1, §2, §3

T1 sequence (P07948 1-491 isoform P07948-2): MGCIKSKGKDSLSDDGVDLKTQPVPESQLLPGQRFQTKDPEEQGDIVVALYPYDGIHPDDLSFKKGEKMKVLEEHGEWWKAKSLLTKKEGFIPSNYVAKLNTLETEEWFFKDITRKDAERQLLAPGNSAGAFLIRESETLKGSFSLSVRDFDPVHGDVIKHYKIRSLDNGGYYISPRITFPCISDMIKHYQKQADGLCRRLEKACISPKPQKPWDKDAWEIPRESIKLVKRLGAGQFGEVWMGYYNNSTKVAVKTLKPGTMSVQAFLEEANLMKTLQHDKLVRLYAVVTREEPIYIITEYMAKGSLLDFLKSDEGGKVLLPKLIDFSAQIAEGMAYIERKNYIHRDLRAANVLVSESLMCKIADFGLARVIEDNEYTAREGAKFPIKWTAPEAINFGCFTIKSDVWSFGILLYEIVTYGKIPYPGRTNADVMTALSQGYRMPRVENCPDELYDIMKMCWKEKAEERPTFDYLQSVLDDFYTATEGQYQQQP
T3 sequence (Q13882 whole entry): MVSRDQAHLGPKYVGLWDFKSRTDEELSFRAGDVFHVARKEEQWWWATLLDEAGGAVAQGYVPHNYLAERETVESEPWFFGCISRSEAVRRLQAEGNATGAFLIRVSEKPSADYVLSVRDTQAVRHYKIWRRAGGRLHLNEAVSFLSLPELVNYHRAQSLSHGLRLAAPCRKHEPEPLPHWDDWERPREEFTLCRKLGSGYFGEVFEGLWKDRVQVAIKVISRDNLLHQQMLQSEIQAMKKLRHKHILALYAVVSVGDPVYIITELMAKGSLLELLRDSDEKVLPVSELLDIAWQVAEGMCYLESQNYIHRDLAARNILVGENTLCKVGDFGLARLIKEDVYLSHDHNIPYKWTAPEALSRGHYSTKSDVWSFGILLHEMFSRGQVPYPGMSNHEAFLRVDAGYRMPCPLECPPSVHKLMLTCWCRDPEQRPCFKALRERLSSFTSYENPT
T6 sequence (P06239 whole entry): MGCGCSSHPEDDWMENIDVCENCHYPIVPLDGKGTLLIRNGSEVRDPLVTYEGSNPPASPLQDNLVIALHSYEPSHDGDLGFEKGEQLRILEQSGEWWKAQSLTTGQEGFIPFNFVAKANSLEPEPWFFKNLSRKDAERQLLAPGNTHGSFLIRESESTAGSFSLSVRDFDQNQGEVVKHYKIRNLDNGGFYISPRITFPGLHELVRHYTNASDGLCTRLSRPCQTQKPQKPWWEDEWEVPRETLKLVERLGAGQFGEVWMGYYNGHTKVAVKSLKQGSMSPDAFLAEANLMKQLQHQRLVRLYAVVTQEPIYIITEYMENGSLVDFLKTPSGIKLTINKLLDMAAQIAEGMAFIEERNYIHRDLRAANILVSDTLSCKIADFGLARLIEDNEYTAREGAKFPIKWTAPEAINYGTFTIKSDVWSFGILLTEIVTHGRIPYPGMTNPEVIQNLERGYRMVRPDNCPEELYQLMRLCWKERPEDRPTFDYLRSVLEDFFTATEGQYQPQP
T4 sequence (P06241 whole entry): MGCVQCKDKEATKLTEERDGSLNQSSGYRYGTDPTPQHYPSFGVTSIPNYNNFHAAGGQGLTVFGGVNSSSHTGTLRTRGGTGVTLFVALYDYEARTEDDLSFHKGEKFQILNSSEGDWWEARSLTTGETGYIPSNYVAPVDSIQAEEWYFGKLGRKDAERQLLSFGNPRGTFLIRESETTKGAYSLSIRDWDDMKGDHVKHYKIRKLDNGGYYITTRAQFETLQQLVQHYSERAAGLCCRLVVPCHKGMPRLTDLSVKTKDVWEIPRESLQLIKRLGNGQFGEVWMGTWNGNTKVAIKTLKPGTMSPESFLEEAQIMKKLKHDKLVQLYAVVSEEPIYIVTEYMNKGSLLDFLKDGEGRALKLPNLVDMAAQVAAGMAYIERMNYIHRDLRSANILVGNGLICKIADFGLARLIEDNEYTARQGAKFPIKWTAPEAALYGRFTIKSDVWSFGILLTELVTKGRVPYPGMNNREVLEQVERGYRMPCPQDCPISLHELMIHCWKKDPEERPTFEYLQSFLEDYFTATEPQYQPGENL
T8 sequence (P00519 whole entry): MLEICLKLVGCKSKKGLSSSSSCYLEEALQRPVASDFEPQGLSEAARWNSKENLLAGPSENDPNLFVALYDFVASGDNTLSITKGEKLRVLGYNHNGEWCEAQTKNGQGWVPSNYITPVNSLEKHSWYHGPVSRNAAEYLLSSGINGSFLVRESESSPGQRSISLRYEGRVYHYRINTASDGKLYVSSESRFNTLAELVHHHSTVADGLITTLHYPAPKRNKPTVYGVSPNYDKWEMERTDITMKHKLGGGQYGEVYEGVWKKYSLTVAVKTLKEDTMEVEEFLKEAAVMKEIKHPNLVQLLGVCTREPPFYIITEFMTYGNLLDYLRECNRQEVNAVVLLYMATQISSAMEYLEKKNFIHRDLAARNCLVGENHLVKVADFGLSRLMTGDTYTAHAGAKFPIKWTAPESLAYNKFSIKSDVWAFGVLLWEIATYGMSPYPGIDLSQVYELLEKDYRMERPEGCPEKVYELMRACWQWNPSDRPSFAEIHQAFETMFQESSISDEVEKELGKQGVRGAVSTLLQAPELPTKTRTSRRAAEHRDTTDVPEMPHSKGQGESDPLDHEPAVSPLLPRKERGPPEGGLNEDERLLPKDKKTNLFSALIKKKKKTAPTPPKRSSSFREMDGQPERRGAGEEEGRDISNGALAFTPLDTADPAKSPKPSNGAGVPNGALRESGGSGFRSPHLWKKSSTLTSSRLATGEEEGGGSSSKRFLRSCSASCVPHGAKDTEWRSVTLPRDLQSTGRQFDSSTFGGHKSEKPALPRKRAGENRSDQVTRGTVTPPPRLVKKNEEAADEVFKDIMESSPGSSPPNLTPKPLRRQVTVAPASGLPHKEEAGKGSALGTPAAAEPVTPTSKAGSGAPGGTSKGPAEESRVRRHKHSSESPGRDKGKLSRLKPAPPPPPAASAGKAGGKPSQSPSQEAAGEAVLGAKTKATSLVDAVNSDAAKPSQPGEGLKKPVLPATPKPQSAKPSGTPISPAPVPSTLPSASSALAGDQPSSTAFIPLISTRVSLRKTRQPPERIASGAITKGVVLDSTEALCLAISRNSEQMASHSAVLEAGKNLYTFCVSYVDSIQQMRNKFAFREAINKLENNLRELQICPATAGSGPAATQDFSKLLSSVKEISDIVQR
T2 sequence (P12931 whole entry): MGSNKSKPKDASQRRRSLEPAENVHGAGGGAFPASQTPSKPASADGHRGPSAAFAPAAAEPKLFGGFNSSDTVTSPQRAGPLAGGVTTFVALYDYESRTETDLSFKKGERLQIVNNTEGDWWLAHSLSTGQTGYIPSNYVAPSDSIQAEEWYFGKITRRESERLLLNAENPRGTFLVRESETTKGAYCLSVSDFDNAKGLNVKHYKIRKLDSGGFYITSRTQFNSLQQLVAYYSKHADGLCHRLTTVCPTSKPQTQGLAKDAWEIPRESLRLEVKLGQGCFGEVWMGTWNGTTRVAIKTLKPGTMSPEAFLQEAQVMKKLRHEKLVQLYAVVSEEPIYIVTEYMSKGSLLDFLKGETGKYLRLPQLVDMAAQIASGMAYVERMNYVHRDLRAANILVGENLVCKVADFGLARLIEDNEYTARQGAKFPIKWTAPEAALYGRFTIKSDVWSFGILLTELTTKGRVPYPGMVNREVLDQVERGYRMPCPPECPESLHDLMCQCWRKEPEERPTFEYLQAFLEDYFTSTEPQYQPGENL
T7 sequence (Q06187 whole entry): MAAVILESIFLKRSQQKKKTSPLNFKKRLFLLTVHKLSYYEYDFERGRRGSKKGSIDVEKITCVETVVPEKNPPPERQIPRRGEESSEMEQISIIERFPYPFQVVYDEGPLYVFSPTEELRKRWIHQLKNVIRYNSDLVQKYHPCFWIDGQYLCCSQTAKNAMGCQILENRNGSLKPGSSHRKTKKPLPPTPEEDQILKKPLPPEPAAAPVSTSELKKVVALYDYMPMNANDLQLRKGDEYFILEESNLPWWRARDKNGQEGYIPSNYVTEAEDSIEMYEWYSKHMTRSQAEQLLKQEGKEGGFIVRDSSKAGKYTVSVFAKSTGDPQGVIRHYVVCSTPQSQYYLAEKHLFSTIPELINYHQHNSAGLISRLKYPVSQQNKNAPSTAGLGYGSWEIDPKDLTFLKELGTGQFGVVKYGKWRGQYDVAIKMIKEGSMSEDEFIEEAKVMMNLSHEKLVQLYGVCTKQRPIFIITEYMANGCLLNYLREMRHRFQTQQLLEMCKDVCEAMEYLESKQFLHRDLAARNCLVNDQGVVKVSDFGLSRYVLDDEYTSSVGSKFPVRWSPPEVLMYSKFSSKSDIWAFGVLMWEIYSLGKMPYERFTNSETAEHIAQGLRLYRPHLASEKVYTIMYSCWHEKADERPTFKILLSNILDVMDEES

| inhibition at 0.5 µM (Lyn B) | inhibition at 0.5 µM (Src) | inhibition at 0.5 µM (BRK) | inhibition at 0.5 µM (Fyn A) | inhibition at 0.5 µM (CSK) | inhibition at 0.5 µM (Lck) | inhibition at 0.5 µM (BTK) | inhibition at 0.5 µM (ABL) | Inhibition of tyrosine kinase activity [%] ABL (ABL) | Structure (SMILES) | IC50 (PANC-1) | IC50 (A549) | IC50 (HCT 116 p53−/−) | IC50 (HCT 116 p53+/+) | IC50 (K562) | IC50 (U-251) | IC50 (NHDF) | also measured |
| --- | --- | --- | --- | --- | --- | --- | --- | --- | --- | --- | --- | --- | --- | --- | --- | --- | --- |
| 0% | 8.17 ± 1.71% | 0% | 25.7 ± 2.29% | 39.3 ± 4.74% | 0% | 53.5 ± 1.33% | 45.9 ± 2.63% | – | COc1cccc(Sc2nc(/C=C/c3ccccc3OC)nc3ccccc23)c1 [IS7, 2-[(E)-2–(2-methoxyphenyl)ethenyl]-4–(3-methoxyphenylthio)quinazoline] | > 15 µM | > 15 µM | > 15 µM | > 15 µM | > 10 µM | > 15 µM | > 20 µM | – |
| 57% | 54% | 19.3 ± 4.65% | 52 ± 3.43% | 39.2 ± 6.47% | 60.7 ± 5.1% | 28.7 ± 2.94% | 35.9 ± 7.23% | – | COc1ccccc1/C=C/c1nc(Sc2ccc(SC)cc2)c2ccccc2n1 [IS9, 2-[(E)-2–(2-methoxyphenyl)ethenyl]-4-[4-(methylthio)phenylthio]quinazolin] | > 25 µM | > 15 µM | > 20 µM | > 20 µM | > 25 µM | > 10 µM | > 25 µM | Inhibition of tyrosine kinase activity [%] Lyn B (Lyn B; 0.5 μM): 57.44 ± 1.76%; Inhibition of tyrosine kinase activity [%] Src (Src; 0.5 μM): 54.23 ± 3.07% |
| 0% | 0% | 0% | 50.1 ± 3.49% | 15.5 ± 2.88% | 48.1 ± 6.55% | 13.1 ± 2.69% | 35.6 ± 1.5% | – | COc1ccc(/C=C/c2nc(Sc3ccccc3Cl)c3ccccc3n2)c(OC)c1 [IS16, 2-[(E)-2–(2,4-dimethoxyphenyl)ethenyl]-4–(2-chlorophenylthio)quinazoline] | > 2.5 µM | 13.4 ± 0.6 µM | > 10 µM | > 15 µM | 7.83 ± 0.753 µM | 20.9 ± 1.63 µM | 14.6 ± 1.27 µM | Selectivity index A549 (A549; versus NHDF): 1.86; Selectivity index HCT 116 p53+/+ (HCT 116 p53+/+; versus NHDF): 1.67; IC50 (MCF-7): > 25 µM; Selectivity index MCF-7 (MCF-7; versus NHDF): 1.00; Selectivity index K562 (K562; versus NHDF): 3.20; Selectivity index U-251 (U-251; versus NHDF): 1.20 |

Second part, the molecule before the results:

| Structure (SMILES) | inhibition at 0.5 µM (Lyn B) | inhibition at 0.5 µM (Src) | inhibition at 0.5 µM (BRK) | inhibition at 0.5 µM (Fyn A) | inhibition at 0.5 µM (CSK) | inhibition at 0.5 µM (Lck) | inhibition at 0.5 µM (BTK) | inhibition at 0.5 µM (ABL) | Inhibition of tyrosine kinase activity [%] ABL (ABL) | IC50 (PANC-1) | IC50 (A549) | IC50 (HCT 116 p53−/−) | IC50 (HCT 116 p53+/+) | IC50 (K562) | IC50 (U-251) | IC50 (NHDF) | also measured |
| --- | --- | --- | --- | --- | --- | --- | --- | --- | --- | --- | --- | --- | --- | --- | --- | --- | --- |
| CNC(=O)c1ccccc1Sc1ccc2c(/C=C/c3ccccn3)n[nH]c2c1 [Axitinib, axitinib, reference compound] | 39 ± 9.95% | 10.8 ± 1.95% | 0% | 43.8 ± 2.96% | 11.4 ± 3.89% | – | – | – | – | – | – | – | – | – | – | – | Fraction of cells in the G2/M phase (K562 cells): 47.28% |
| COc1ccccc1/C=C/c1nc(Sc2cc3c(cc2Br)OCO3)c2ccccc2n1 [IS11, 5-{2-[(E)-2–(2-methoxyphenyl)ethenyl]quinazolin-4-ylthio}-6-bromo-2H-1,3-benzodioxole] | 0.86 ± 0.23% | 40.9 ± 1.77% | 0% | 19.1 ± 3.57% | 50.7 ± 5.6% | 0% | 2.87 ± 0.67% | 18.4 ± 2.37% | inactive | > 10 µM | > 5 µM | > 15 µM | > 15 µM | > 2.5 µM | > 5 µM | 21.7 ± 1.53 µM | – |
| COc1ccccc1/C=C/c1nc(Sc2cc3c(cc2Br)OCO3)c2ccc(Cl)cc2n1 [IS15, 5-{2-[(E)-2–(2-methoxyphenyl)ethenyl]-7-chloroquinazolin-4-ylthio}-6-bromo-2H-1,3-benzodioxole] | 32.3 ± 2.51% | 53.4 ± 3.13% | 27.2 ± 1.31% | 57.5 ± 4.04% | 33.1 ± 1.19% | 51.5 ± 4.55% | 39.3 ± 2.69% | 41% | 41.81 ± 4.38% | > 25 µM | > 25 µM | > 25 µM | > 25 µM | 21.2 ± 2.19 µM | > 25 µM | > 25 µM | IC50 (MCF-7): > 25 µM |
| COc1ccc(/C=C/c2nc(Sc3cc4c(cc3Br)OCO4)c3ccccc3n2)c(OC)c1 [IS17, 5-{2-[(E)-2–(2,4-dimethoxyphenyl)ethenyl]quinazolin-4-ylthio}-6-bromo-2H-1,3-benzodioxole] | 0% | 21 ± 1.82% | 0% | 19.8 ± 3.51% | 7.77 ± 3.16% | 0% | 9.58 ± 0.62% | 11.9 ± 2.86% | inactive | > 15 µM | > 15 µM | > 15 µM | > 15 µM | > 10 µM | 20.2 ± 0.9 µM | 21.3 ± 0.8 µM | – |
